Measured values: PMC11335189, “Revealing molecular determinants governing mambalgin-3 pharmacology at acid-sensing ion channel 1 variants” (Cellular and Molecular Life Sciences: CMLS, 2024)
Read-outs that look alike come from different tables or passages of the source. Positions of bridges follow the written chain, without caps; N, C: chain ends. No end group written: not given here.

What was measured:
[1] = biological target: T1, rASIC1a (Rattus norvegicus, UniProt P55926); assay: TEVC in Xenopus laevis oocytes expressing rASIC1a; format: cell-based; settings: for inhibition of currents at 300 nM: 300 nM peptide; for increase in IC50 (loss of potency) relative to wild-type Ma-3: peptides applied at pH 7.45, stimulated at pH 6
T1 construct: expressed in transfected cells; host or cells: Xenopus laevis oocytes (cRNA injection)
T1 sequence (P55926 1-526): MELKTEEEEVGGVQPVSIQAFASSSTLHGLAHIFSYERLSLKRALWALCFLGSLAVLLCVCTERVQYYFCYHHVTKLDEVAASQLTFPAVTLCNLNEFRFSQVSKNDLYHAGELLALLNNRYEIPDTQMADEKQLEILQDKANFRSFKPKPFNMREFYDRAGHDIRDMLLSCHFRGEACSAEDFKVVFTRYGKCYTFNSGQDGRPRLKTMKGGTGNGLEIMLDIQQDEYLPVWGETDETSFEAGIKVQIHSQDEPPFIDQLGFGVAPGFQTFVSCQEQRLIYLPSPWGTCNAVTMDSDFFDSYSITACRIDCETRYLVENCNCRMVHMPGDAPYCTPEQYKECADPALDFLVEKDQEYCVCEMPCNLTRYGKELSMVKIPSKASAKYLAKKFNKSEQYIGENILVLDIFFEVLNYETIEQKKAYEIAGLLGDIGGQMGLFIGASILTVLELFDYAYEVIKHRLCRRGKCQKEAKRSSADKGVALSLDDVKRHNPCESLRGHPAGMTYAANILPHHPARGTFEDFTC
Description: (§1) Two-electrode voltage-clamp (TEVC) experiments using Xenopus laevis oocytes were conducted as previously described. Briefly, oocytes were surgically removed from anaesthetised female frogs, then treated with collagenase (~ 1 mg/ml, Sigma type I) for 2 h under agitation at room temperature. cRNAs were synthesised using a mMessage mMachine T7 or SP6 transcription kit (Thermo Fisher Scientific Australia Pty Ltd, Scoresby, VIC, Australia) and injected into healthy stage V–VI oocytes at 0.2–20 ng per cell. Different amounts of RNA were used for different wild-type and mutant constructs, as well as to titrate expression levels to record over multiple days and maintaining consistent expression levels. Injected oocytes were incubated at 17 °C for 1–7 days in 50% Leibovitz’s L-15 medium (Gibco, Thermo Fisher Scientific Australia Pty Ltd, Scoresby, VIC, Australia), supplemented with 25 µg/mL gentamicin, 25 µg/mL streptomycin, and 2.5% fetal horse serum. Membrane currents were recorded 2–7 days after cRNA-injection under voltage-clamp at -60 mV (Axon Axoclamp 900 A, Molecular Devices, CA, USA) using two standard glass microelectrodes of 0.5–1 MΩ resistance when filled with 3 M KCl solution. Data were sampled at 2 kHz and filtered at 0.1 kHz using Clampex 10 software (Molecular Devices, CA, USA). A microperfusion system was used to allow fast extracellular solution exchange (bath volume = ~ 30 µL). All experiments were performed at room temperature (18–23 °C) in ND96 (96 mM NaCl, 2 mM KCl, 1.8 mM CaCl2, 2 mM MgCl2, 5 mM HEPES, pH 7.45). In solutions below pH 6.8, HEPES was replaced by MES. All solutions containing peptides contained 0.05% fatty acid free bovine serum albumin to decrease adsorptive losses of peptide to plasticware. For all channels tested, control current magnitudes between 500 and 9000 nA when tested using a conditioning pH of 7.45 and stimulating pH of 6 (except for the chimeras that were stimulated with pH 5) were used for data collection. Before recording any experiments, oocytes were stimulated multiple times with low pH to minimise and stabilise tachyphylaxis/desensitisation, which were then accounted for during analysis. Complete recovery of currents from Ma-3 induced modulation within 3 min of washout at all channels tested allowed for correction for tachyphylaxis/desensitisation during analyses.
(§2) Specific to this work, the standard protocol was for oocytes to be conditioned at pH 7.45 and channels stimulated every 60 s using a 5 s pH 5 or 6 application, unless stated otherwise. For all concentration-response data, peptides were applied for ~ 50 s between each low pH stimulus application. Activation curves were determined by conditioning oocytes at pH 8 (Fig. 2e − g; and Fig. 5a and b) or 7.45 (Fig. 6; and Supplementary Fig. 2d and c) for 55 s and applying low pH stimuli from 7.25 to 5.0 for 5 s. Steady-state desensitisation (SSD) was determined by applying conditioning solutions of pH values from 8 to 6 for 115 s prior to stimulation by a pH drop to 5 for 5 s. Ma-3 was only applied in the conditioning solution for activation and steady-state desensitisation curves in the presence of peptide. Control pH-dependence curves were determined in the absence of any Ma-3. When assessing the effect of Ma-3 on the rASIC1a: ASIC1b chimeras (C92 and C166; and for the comparative wild-type data), the conditioning pH was 7.45 and stimulating pH 5 (Fig. 3b). Specific details of the conditioning and stimulating pH are noted in each figure legend.
(§3) Data were analysed using pCLAMP-Clampfit software (Version 11, Molecular Devices, CA, USA) and GraphPad Prism 9.5 and 10.2.2 (GraphPad Software, San Diego, CA, USA). To obtain the Hill coefficient (nH) and half-maximal response (EC50, IC50, or pH50) the Hill equation was fitted to normalised concentration-response curves by using a non-linear fit to the data of a four-parameter logistic equation (“sigmoidal dose-response” in GraphPad Prism 9.5). […]

[2] = biological target: T2, hASIC1b (Homo sapiens, UniProt P78348); assay: TEVC in Xenopus laevis oocytes expressing hASIC1b; format: cell-based; settings: for remaining activity at 1 µM: 1 µM peptide, conditioning pH 7.45, mean, n ≥ 5, read-out: I/Icontrol
T2 construct: expressed in transfected cells; host or cells: Xenopus laevis oocytes (cRNA injection)
T2 sequence (P78348 1-562 isoform P78348-3): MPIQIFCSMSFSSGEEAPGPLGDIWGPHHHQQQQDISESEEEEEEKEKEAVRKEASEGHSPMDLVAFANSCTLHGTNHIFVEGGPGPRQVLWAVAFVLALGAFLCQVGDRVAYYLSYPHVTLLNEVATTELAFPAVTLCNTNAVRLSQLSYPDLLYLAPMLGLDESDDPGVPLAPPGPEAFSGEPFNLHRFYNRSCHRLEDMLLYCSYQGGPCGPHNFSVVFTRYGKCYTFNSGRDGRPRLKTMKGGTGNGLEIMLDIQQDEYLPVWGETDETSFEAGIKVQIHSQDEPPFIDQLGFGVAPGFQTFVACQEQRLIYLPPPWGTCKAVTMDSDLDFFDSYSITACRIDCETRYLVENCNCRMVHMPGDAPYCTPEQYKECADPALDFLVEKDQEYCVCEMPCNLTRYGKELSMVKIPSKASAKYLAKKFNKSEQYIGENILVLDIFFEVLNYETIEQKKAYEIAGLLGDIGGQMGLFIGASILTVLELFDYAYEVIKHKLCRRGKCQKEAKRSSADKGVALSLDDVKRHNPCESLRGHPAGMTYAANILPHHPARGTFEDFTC
Description: as §1, §2, §3

[3] = conditioning pH 7.45, stimulating pH 6

Substance: H-SLKCYQHGKVVTCHRDMKFCYHNIGMPFRNLKLILQGCSSSCSETENNKCCSTDRCNK (disulfide 4-20, 13-38, 42-50, 51-56 (inferred)) [Ma-3, mambalgin-3]
- t1/2 of onset of inhibition ([1]; 30 nM Ma-3 (~ 10 times the IC50) applied at pH 7.45 for different durations, single exponential fit, n = 6): 6.5 s
- time of Ma-3 application to maximal inhibition ([1]; 30 nM Ma-3 at pH 7.45): ≤ 45 s
- shift of the activation curve towards more acidic values ([1]; 100 nM Ma-3, conditioning pH 8): 0.48 pH units
- slope of activation curve in presence of Ma-3 ([1]; 100 nM Ma-3, conditioning pH 8, mean ± SEM): 1.29 ± 0.67
- alkaline shift in the SSD curve ([1]; 100 nM Ma-3, stimulating pH 5): 0.08 pH units
- slope of SSD curve in presence of Ma-3 ([1]; 100 nM Ma-3, stimulating pH 5, mean ± SEM): 7.09 ± 1.34
- pH50 of activation in presence of Ma-3 ([1]; 100 nM Ma-3 in conditioning solution, conditioning pH 8, Hill fit, mean ± SEM, n = 5–8): 5.72 ± 0.23
- pH50 of steady-state desensitisation (SSD) in presence of Ma-3 ([1]; 100 nM Ma-3 in conditioning solution, stimulating pH 5, Hill fit, mean ± SEM, n = 5–8): 7.42 ± 0.04
- pH50 of activation in presence of Ma-3 ([1]; 100 nM Ma-3 in the pH 8 conditioning solution, Hill fit (Supplementary Table 7), n = 5–6): 5.60
- inhibition of currents at 300 nM [1, 3]: strongly inhibit
- fold more potent inhibition of rASIC1a than rASIC1b ([1]; IC50 ratio, conditioning pH 7.45, stimulating pH 6): ~ 10 fold
- t1/2 of recovery of currents from inhibition (washout) ([1]; after 30 nM Ma-3, pH 7.45 conditioning, single exponential fit, n = 6): 21.6 s
- inhibition at saturating Ma-3 concentrations [1, 3]: completely inhibited
- pH50 of activation in presence of Ma-3 ([2]; 300 nM Ma-3, conditioning pH 7.45, Hill fit, n = 5–6): 6.20
- remaining activity at 1 µM ([2]; pH 5 evoked currents): 69%
- remaining activity at 1 µM ([2]; pH 6 evoked currents): 161%
- difference in potency between pH 5 and pH 6 stimulus conditions ([2]; potentiation at pH 6 vs inhibition at pH 5, conditioning pH 7.45): ~ 10 fold

Substance: H-SLKCYQHGKVVTCHRDAKFCYHNIGMPFRNLKLILQGCSSSCSETENNKCCSTDRCNK (disulfide 4-20, 13-38, 42-50, 51-56 (inferred)) [M16A]
- inhibition of currents at 300 nM [1, 3]: strongly inhibit
- increase in IC50 (loss of potency) relative to wild-type Ma-3 [1]: no change
- remaining activity at 1 µM ([2]; pH 5 evoked currents): 80%
- remaining activity at 1 µM ([2]; pH 6 evoked currents): 188%

Substance: H-SLKCYQHGAVVTCHRDMKFCYHNIGMPFRNLKLILQGCSSSCSETENNKCCSTDRCNK (disulfide 4-20, 13-38, 42-50, 51-56 (inferred)) [K8A]
- inhibition of currents at 300 nM [1, 3]: strongly inhibit
- increase in IC50 (loss of potency) relative to wild-type Ma-3 [1]: ~ 4 fold
- remaining activity at 1 µM ([2]; pH 5 evoked currents): 75%
- remaining activity at 1 µM ([2]; pH 6 evoked currents): 165%
